{
  "source": "patent US7160916B2",
  "about": "“Method of increasing bone density or treating osteoporosis” (Yung Shin Pharmaceutical Ind. Co., Ltd., priority 2003, dated 2007)",
  "type_in_all_cases": "cell-based, rat",
  "key": {"osteoclast precursors": {"tested_on": "osteoclast precursors", "test": "Osteoclastogenesis (TRAP-positive multinucleated cells)", "settings": "M-CSF 20 ng/ml and sRANKL 50 ng/ml, 8 days", "method": "Osteoclastogenesis: Bone marrow cells were prepared by removing femurs from 6–8-week-old SD rats and flushing the bone marrow cavity with DMEM which was supplemented with 20 mM HEPES and 10% heat-inactivated FCS, 2 mM-glutamine, penicillin (100 U/ml) and streptomycin (100 μg/ml). After 24 hr, the non-adherent cells (hematopoietic cells) were collected and used as osteoclast precursors. The cells were seeded at 1×10^6 cells/well (0.5 ml) in 24-well plates in the presence of human recombinant soluble RANKL (50 ng/ml, Peprotech EC Ltd., London, United Kingdom) and murine M-CSF (20 ng/ml, Genzyme, Cambridge, Mass.). The culture medium was changed every 3 days. After 8˜10 days, osteoclast formation was confirmed by an assay of tartrate-resistant acid phosphatase (TRAP) (Kotake et al., 1999). In brief, the adherent cells were fixed with 10% formaldehyde in phosphate-buffered saline for 3 min. After treatment with ethanol/acetone (50:50 v/v) for 1 min, the cell surface was air dried and incubated for 10 min at room temperature in an acetate buffer (0.1 M sodium acetate, pH 5.0) containing 0.01% naphthol AS-MX phosphate (Sigma) and 0.03% fast red violet LB salt (Sigmna) in the presence of 50 mM sodium tartrate. Osteoclast-like TRAP-positive cells in each well were scored by counting the number of TRAP-positive and multinucleated cells containing more than three nuclei."}, "α5 and β1 integrins": {"tested_on": "α5 and β1 integrins", "test": "Flow cytometry of surface expression of integrins", "settings": "treatment for 24 hr", "method": "Fibronectin (Fn) plays an important role in the regulation of adhesion, migration, and maturation of osteoblasts. Fn fibrillogenesis is involved in the process of bone mineralization. The effect of Indazole 1 on Fn fibrillogenesis in cultured osteoblasts was examined. The immobilized form of fibrillogenesis from the endogenously released Fn by monolayer Day 3˜5 osteoblasts was studied using immunocytochemistry. Incubation of Day-3 osteoblasts with Indazole 1 (10 μM) for 24 hr increased extracellular Fn assembly. Flow cytometry was used to analyze the effect of Indazole 1 on the surface expression of α5 and β1 integrins. […] On the other hand, the collagen synthesis was increased by Indazole 1 only at a higher concentration of 10 μM."}, "Osteoblasts": {"tested_on": "Osteoblasts", "test": "Assay of cell proliferation (BrdU incorporation)", "method": "Primary osteoblast cultures: Primary osteoblast cells were prepared from calvaria of 18-day-old fetal Sprague-Dawley (SD) rats according to the following method: Pregnant rats were put in anesthesia using intraperitoneal injection of trichloroacetaldehyde (200 mg/kg). The calvaria of the fetal rats were then dissected with aseptic technique. Soft tissues were removed under a dissecting microscope. The calvaria were divided into small pieces and then treated with 0.1% collagenase (Sigma Chemical, St. Louis, Mo.) solution for 10 minutes at 37° C. The cells released from the calvariae by two 20-minute sequential collagenase digestions were pooled and filtered through 70 μm nylon filters (Falcon, BD BioSciences, San Jose, Calif.). The cells were then grown on plastic cell culture dishes in 95:5 air-CO2 with Dulbecco's modified Eagle's medium (DMEM) (Gibco, Grand Island, N.Y.) which was supplemented with 20 mM HEPES and 10% heat-inactivated FCS, 2 mM-glutamine, penicillin (100 U/ml) and streptomycin (100 μg/ml) (pH adjusted to 7.6). The cell medium was changed twice a week. Osteoblasts were confirmed by morphology and expression of alkaline phosphatase (ALP). […] BrdU incorporation was assayed according to the protocol of enzyme-linked immunosorbent assay chemiluminescence detection kit (Roche Molecular Biochemicals) using a luminescence counter (TopCount; Packard Instruments, Meriden, Conn.). […]"}, "osteoclasts": {"tested_on": "osteoclasts", "test": "Assay of bone resorption of osteoclast", "settings": "3-day incubation after removal of M-CSF and sRANKL, versus control", "method": "Assay of bone resorption of osteoclast: Osteoclast precursors were isolated from rat long bones as mentioned above. The cells were re-suspended in a complete DMEM medium and plated into a calcium phosphate apatite-coated 24-well plate, OAAS (Oscotec, OCT USA Inc.) at 1×10^6 cells/0.5 ml/well. The cells were cultured for 5 days in the presence of M-CSF (20 ng/ml) plus sRANKL (50 ng/ml). Indazole 1 was injected daily for additional 3 days in the absence of M-CSF and sRANKL. Culture was terminated on day 8 and the remaining cells in the plate were lysed using 1 N NaOH. Five images per well were obtained using an inverted microscope (200×), and resorbed area was measured using an image analyzer. Local injection Male SD rats weighing 70–88 gm were used. Implantation of a cannula (22G) was done from the posteriolateral side into the proximal tibial metaphysis in both limbs of rats anesthetized with pentobarbital. The cannula had its outer end in the subcutaneous tissue. Indazole 1 was percutaneously injected through the cannula into the proximal tibia once/day for 1 week. The same concentration of DMSO diluted with normal saline was injected into the right side for comparison. On day 14, the rats were sacrificed and tibiae were fixed in 10% formaldehyde for 48 h at 4° C. The effect of Indazole 1 on resorption activity of osteoclasts was also examined. […]"}},
  "data": [
    {"smiles": "OCc1ccc(-c2nn(Cc3ccccc3)c3ccccc23)o1", "note": "[Indazole 1, 1-benzyl-3-(5′-hydroxymethyl-2′-furyl)-indazole]", "values": [
      {"measurement": "differentiation of osteoclast", "setting": "osteoclast precursors", "value": "inhibited the differentiation of osteoclast in a concentration-dependent manner"},
      {"measurement": "cell surface expression of α5 and β1 integrins", "setting": "α5 and β1 integrins", "value": "increased"},
      {"measurement": "proliferation of osteoblasts", "setting": "Osteoblasts; 0.1 μM", "value": "119.3 % of control"},
      {"measurement": "proliferation of osteoblasts", "setting": "Osteoblasts; 1 μM", "value": "126.1 % of control"},
      {"measurement": "resorption activity of osteoclasts", "setting": "osteoclasts", "value": "significantly inhibited"}
    ]}
  ]
}
